# Reference: ChEMBL document CHEMBL1128041, “Thiophene derivatives as extremely high affinity P3 ligands for the hydroxyethylpiperazine class of HIV-1 protease inhibitors” (Bioorg Med Chem Lett, 1995)
# How the values were obtained:
# MT4 [1] = test: Compound was tested in vitro for antiviral activity against MT-4 human lymphoid cells infected with the HIV IIIb isolate; type: functional; conditions: read-out: CIC95
# [2] = Solubility at pH 5.2; type: physicochemical; conditions: buffer
# [3] = Solubility at pH 7.4; type: physicochemical; conditions: buffer
# MT4 [4] = test: Compound was tested in vitro for antiviral activity against MT-4 human lymphoid cells infected with the HIV IIIb isolate; value ranges from 25-50; type: functional; conditions: read-out: CIC95
# [5] = Maximal plasma concentration was determined.; type: ADME, organism-based; conditions: rat
# [6] = target: Human immunodeficiency virus type 1 protease (Human immunodeficiency virus 1, UniProt Q72874); test: Inhibition of HIV-1 Protease
SMILES,IC95 (MT4 [1]) [nM],solubility [2] [µg/mL],solubility [3] [µg/mL],other results
CC(C)[C@@H]1[C@H](OC(=O)N[C@@H](Cc2ccccc2)[C@H](O)CN2CCN(Cc3cc(Br)cs3)C[C@H]2C(=O)NC(C)(C)C)CCS1(=O)=O,25,37.2,< 0.08,
CC(C)[C@@H]1[C@H](OC(=O)N[C@@H](Cc2ccccc2)[C@H](O)CN2CCN(Cc3cc4ccccc4s3)C[C@H]2C(=O)NC(C)(C)C)CCS1(=O)=O,100,,,
CC(C)[C@@H]1[C@H](OC(=O)N[C@@H](Cc2ccccc2)[C@H](O)CN2CCN(Cc3cc4ccsc4s3)C[C@H]2C(=O)NC(C)(C)C)CCS1(=O)=O,12,11.1,0.1,
CC(C)[C@@H]1[C@H](OC(=O)N[C@@H](Cc2ccccc2)[C@H](O)CN2CCN(Cc3ccc(-c4cccs4)s3)C[C@H]2C(=O)NC(C)(C)C)CCS1(=O)=O,50,,,
CCc1ccc(CCN2CCN(C[C@@H](O)[C@H](Cc3ccccc3)NC(=O)O[C@@H]3CCS(=O)(=O)[C@@H]3C(C)C)[C@H](C(=O)NC(C)(C)C)C2)s1,50,,,
CC(C)[C@@H]1[C@H](OC(=O)N[C@@H](Cc2ccccc2)[C@H](O)CN2CCN(CCc3cccs3)C[C@H]2C(=O)NC(C)(C)C)CCS1(=O)=O,,1270,91.3,IC95 (MT4 [4]): 25 nM; Cmax [5]: > 1000 nM
CC(C)[C@@H]1[C@H](OC(=O)N[C@@H](Cc2ccccc2)[C@H](O)CN2CCN(Cc3cc4sccc4s3)C[C@H]2C(=O)NC(C)(C)C)CCS1(=O)=O,6,6.9,< 0.05,
CC(C)[C@@H]1[C@H](OC(=O)N[C@@H](Cc2ccccc2)[C@H](O)CN2CCN(Cc3ccc(Br)s3)C[C@H]2C(=O)NC(C)(C)C)CCS1(=O)=O,100,,,
Cc1cc(CN2CCN(C[C@@H](O)[C@H](Cc3ccccc3)NC(=O)O[C@@H]3CCS(=O)(=O)[C@@H]3C(C)C)[C@H](C(=O)NC(C)(C)C)C2)cc(Cl)n1,25,,,
CC(C)[C@@H]1[C@H](OC(=O)N[C@@H](Cc2ccccc2)[C@H](O)CN2CCN(Cc3ccsc3)C[C@H]2C(=O)NC(C)(C)C)CCS1(=O)=O,50,,,
CC(C)[C@@H]1[C@H](OC(=O)N[C@@H](Cc2ccccc2)[C@H](O)CN2CCN(CCc3ccsc3)C[C@H]2C(=O)NC(C)(C)C)CCS1(=O)=O,50,,,
CC(C)[C@@H]1[C@H](OC(=O)N[C@@H](Cc2ccccc2)[C@H](O)CN2CCN(Cc3cccs3)C[C@H]2C(=O)NC(C)(C)C)CCS1(=O)=O,,,,IC95 (MT4 [4]): 25 nM
CC(C)[C@@H]1[C@H](OC(=O)N[C@@H](Cc2ccccc2)[C@H](O)CN2CCN(Cc3csc4ccc(Cl)cc34)C[C@H]2C(=O)NC(C)(C)C)CCS1(=O)=O,100,,,IC50 [6]: 0.47 nM
